molecular target: MAPK14 (human) (UniProt Q16539); assay: Inhibition of MAPK14 Kinase Activity
Sequence (Q16539 whole entry, looked up): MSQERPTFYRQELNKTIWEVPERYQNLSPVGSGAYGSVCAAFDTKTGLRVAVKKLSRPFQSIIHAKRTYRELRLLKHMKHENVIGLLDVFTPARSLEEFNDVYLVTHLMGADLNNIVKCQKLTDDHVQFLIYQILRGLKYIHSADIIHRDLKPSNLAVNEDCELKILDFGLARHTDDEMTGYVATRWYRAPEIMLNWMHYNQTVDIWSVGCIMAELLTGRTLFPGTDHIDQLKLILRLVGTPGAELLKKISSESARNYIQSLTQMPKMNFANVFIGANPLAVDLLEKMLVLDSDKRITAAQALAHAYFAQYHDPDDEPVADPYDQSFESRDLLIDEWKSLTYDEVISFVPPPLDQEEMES

IC50, ≤ 10 µM:
Cc1cc(C)cc(SC2CCC(=O)N(c3c(Cl)csc3Cl)C2)c1 (centres undefined)
CN1CCN(Cc2cc(Cl)c(N3CC(Cc4ccc(F)cc4F)CCC3=O)c(Cl)c2)CC1 (centres undefined)
O=C1SCC(Cc2cccc3ccccc23)CN1c1c(Cl)cccc1Cl (centres undefined)
COc1ccc(CC2COC(=O)N(c3c(Cl)cccc3Cl)C2)cc1 (centres undefined)
Nc1cc(Cl)c(N2CC(C(=NO)c3ccc(F)cc3F)CCC2=O)c(Cl)c1 (centres undefined)
O=C(N[C@H]1C[C@H](Cc2ccc(F)cc2F)CN(c2c(Cl)cccc2Cl)C1=O)OCc1ccccc1
COC(=O)c1ccccc1CC1CCC(=O)N(c2c(C)cccc2C)C1 (centres undefined)
O=C1OCC(Cc2ccccc2)CN1c1c(Cl)cccc1Cl (centres undefined)
O=C1CCC(Sc2cc(F)cc(F)c2)CN1C1C(Cl)CCCC1Cl (centres undefined)
COc1ccccc1CC1CCC(=O)N(C2C(Cl)CCCC2Cl)C1 (centres undefined)
O=C(Cc1ccccc1)Nc1cc(Cl)c(N2CC(Cc3ccc(F)cc3F)CCC2=O)c(Cl)c1 (centres undefined)
CN(C(=O)Cc1ccccc1)c1cc(Cl)c(N2CC(Cc3ccc(F)cc3F)CCC2=O)c(Cl)c1 (centres undefined)
COc1ccc(CC2CCC(=O)N(c3c(Cl)ccnc3Cl)C2)cc1 (centres undefined)
O=C(Cc1ccccc1)Nc1sc(Cl)c(N2CC(Oc3ccc(F)cc3F)CCC2=O)c1Cl (centres undefined)
O=C1CCC(Oc2cc(F)cc(F)c2)CN1c1c(Cl)csc1Cl (centres undefined)
O=C(Cc1ccccc1)Nc1cc(Cl)c(N2CC(Cc3ccc(F)cc3F)CSC2=O)c(Cl)c1 (centres undefined)
Cc1ccccc1CC1CN(c2c(Cl)cccc2Cl)C(=O)CO1 (centres undefined)
O=C1CCC(C(O)c2ccc(F)cc2F)CN1c1c(Cl)cc(Br)cc1Cl (centres undefined)
O=C(Cc1ccccc1)Nc1cnc(Cl)c(N2CC(Sc3ccc(F)cc3F)CCC2=O)c1Cl (centres undefined)
CN(C)CCCNc1cc(Cl)c(N2CC(Cc3ccc(F)cc3F)CCC2=O)c(Cl)c1 (centres undefined)
O=C(Nc1ccc(CC2CCC(=O)N(c3c(Cl)cccc3Cl)C2)cc1)C1CCCCC1 (centres undefined)
O=C1CCC(Sc2ccc(F)cc2F)CN1C1C(Cl)CCCC1Cl (centres undefined)
O=C1CCC(Sc2ccc(F)cc2F)CN1c1c(Cl)ccnc1Cl (centres undefined)
Nc1ccc(Cl)c(N2CC(Cc3ccc(F)cc3F)CCC2=O)c1 (centres undefined)
O=C1CCC(CO)(Cc2ccc(F)cc2F)CN1c1c(Cl)cccc1Cl (centres undefined)
CN1CC(Cc2ccc(Cl)cc2)CN(c2c(Cl)cccc2Cl)C1=O (centres undefined)
O=C1CCC(Cc2ccc(F)cc2F)CN1c1c(Cl)cc(NCCN2CCCCC2)cc1Cl (centres undefined)
Cc1ccc(SC2CCC(=O)N(c3c(Cl)ccnc3Cl)C2)c(C)c1 (centres undefined)
CC(=O)Nc1ccc(Cl)c(N2CC(Cc3ccc(F)cc3F)CN(C)C2=O)c1Cl (centres undefined)
O=C1CCC(Oc2ccc(F)cc2F)CN1c1c(Cl)cc(CO)nc1Cl (centres undefined)
Cc1cc(C)cc(OC2CCC(=O)N(C3C(Cl)CCCC3Cl)C2)c1 (centres undefined)
O=C1CCC(Cc2ccc(F)cc2F)CN1c1c(Cl)cc(NCCN2CCCC2)cc1Cl (centres undefined)
O=C1CCC(Sc2ccc3ccccc3c2)CN1c1c(Cl)cccc1Cl (centres undefined)
Cc1ccc(OC2CCC(=O)N(c3c(Cl)csc3Cl)C2)c(C)c1 (centres undefined)
O=C1CCC(Oc2ccc(Cl)cc2Cl)CN1c1c(Cl)ccnc1Cl (centres undefined)
O=C1CCC(Sc2cccc3ccccc23)CN1C1C(Cl)CCCC1Cl (centres undefined)
COc1ccccc1CC1CCC(=O)N(c2c(Cl)cncc2Cl)C1 (centres undefined)
O=C1CCC(Sc2ccc(Cl)cc2)CN1c1c(Cl)ccnc1Cl (centres undefined)
CC(C)(C)OC(=O)Nc1ccc(N2CC(Cc3ccc(F)cc3F)CCC2=O)c(Cl)c1 (centres undefined)
Cc1ccc(SC2CCC(=O)N(c3c(Cl)csc3Cl)C2)cc1 (centres undefined)
O=C(Cc1ccccc1)Nc1sc(Cl)c(N2CC(Sc3ccc(F)cc3F)CCC2=O)c1Cl (centres undefined)
CN1CC(Cc2ccc(F)cc2F)CN(c2c(Cl)cc(O)cc2Cl)C1=O (centres undefined)
O=C1CCC(Sc2ccc(F)cc2F)CN1c1c(Cl)ccc(O)c1Cl (centres undefined)
CC(C)(C)OC(=O)N[C@@H](CO)C(=O)Nc1cc(Cl)c(N2CC(Cc3ccc(F)cc3F)CCC2=O)c(Cl)c1 (some centres undefined)
COc1ccc(SC2CCC(=O)N(C3C(Cl)CCCC3Cl)C2)cc1 (centres undefined)
O=C1CCC(Sc2ccc(F)cc2F)CN1c1c(Cl)cc(CO)cc1Cl (centres undefined)
O=C1CCC(Cc2ccc(F)cc2F)CN1c1c(Cl)cc(O)cc1Cl (centres undefined)
CC(=O)Nc1cc(Cl)c(N2CC(Cc3ccc(F)cc3F)OCC2=O)c(Cl)c1 (centres undefined)
O=C1CCC(Sc2ccc(F)cc2F)CN1c1c(Cl)cc(CO)nc1Cl (centres undefined)

Source: the Kinase Knowledgebase extract (Sharma et al. 2016)
